According to article PMC8538004, “Identification of a Novel Neuropeptide S Receptor Antagonist Scaffold Based on the SHA-68 Core” (Pharmaceuticals, 2021):
“Also recorded” adds a separate entry of the source.

Columns and labels:
human NPSR-107I = target: T1, human NPSR-107I (Homo sapiens, UniProt Q6W5P4, N107I); assay: Ca+2 mobilization assay (apparent Ke against NPS); format: cell-based
T1 construct: expressed in transfected cells
T1 sequence (Q6W5P4 1-371 N107I): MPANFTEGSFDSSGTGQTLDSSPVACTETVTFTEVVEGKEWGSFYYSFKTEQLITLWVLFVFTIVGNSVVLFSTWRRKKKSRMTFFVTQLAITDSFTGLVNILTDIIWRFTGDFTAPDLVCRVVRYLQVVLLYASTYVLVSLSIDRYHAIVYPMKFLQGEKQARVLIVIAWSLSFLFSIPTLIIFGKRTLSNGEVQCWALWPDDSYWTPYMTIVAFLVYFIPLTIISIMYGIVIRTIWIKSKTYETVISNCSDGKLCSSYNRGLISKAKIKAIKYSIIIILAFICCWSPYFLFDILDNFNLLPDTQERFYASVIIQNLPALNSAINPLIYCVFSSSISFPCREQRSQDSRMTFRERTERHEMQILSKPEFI
Experimental: A stable cell line overexpressing the human NPSR-107I was created in CHO-Gαq16 cells (RD-HGA16, Molecular Devices), as previously described. Briefly, CHO-Gαq16 cells were transfected with pcDNA 3.1 human NPSR-107I using Lipofectamine reagent. Transfected cells were plated into 10 cm^2 dishes 24 h post-transfection and were selected using Geneticin. After 2 weeks, individual clones were selected, grown to confluence, and screened in a functional 96-well calcium mobilization assay that measured the response to NPS (100 nM final). […] A final working clone was chosen for all subsequent studies based on NPS potency and the calcium mobilization signal window. CHO-Gα16-hNPSR-107I cells were cultured in Ham’s F12 media supplemented with 10% FBS, 100 units/mL penicillin, 100 μg/mL streptomycin, 200 μg/mL hygromycin, and 400 μg/mL geneticin. Media were purchased from HyClone (GE Life Sciences); FBS, penicillin/streptomycin, hygromycin, and geneticin were purchased from Invitrogen (Thermo Scientific). The day before the assay, cells were plated into 96-well black-walled assay plates at 25,000–40,000 cells/well in growth medium without selection antibiotics. Cells were incubated overnight at 37 °C, 5% CO2. The FLIPR Calcium 5 assay kit (Molecular Devices) was used according to the manufacturer’s instructions with minor modifications. Briefly, reconstituted dye was diluted in pre-warmed assay buffer (HBSS, 20 mM HEPES, 2.5 mM probenecid, pH 7.4 at 37 °C). Growth medium was removed, and the cells were gently washed with assay buffer. Calcium 5 dye was added to the cells and the plate was incubated for 45 min at 37 °C, 5% CO2. A single concentration of test compound and 10-point concentration–response curves of NPS (ranging from 100 nM to 1 pM) were prepared at 10× the desired final concentration. Cells were pretreated with the test compound or vehicle in a final concentration of 0.25% BSA/1% DMSO for 15 min at 37 °C. Assay plates were read with a FlexStation II instrument (excitation at 485 nm, detection at 525 nm, Molecular Devices). Calcium-mediated changes in fluorescence were monitored every 1.5 s over a 90 s time period. NPS was added during the read and the maximum kinetic […] (SoftMax [Max-Min], Molecular Devices) in relative fluorescent units (RFU) was measured. Data were fitted to a three-parameter logistic curve to generate EC50 values (GraphPad Prism 6.0). Antagonism was quantified by measuring the ratio of equi-active concentrations of agonist measured in the presence or absence of the antagonist. Apparent Ke values were calculated using the equation Ke = [L]/((EC50^+/EC50^−) − 1), where [L] is the concentration of test compound, EC50^+ is the EC50 of NPS with test compound, and EC50^– is the EC50 of NPS alone. Ke values were considered valid when the EC50^+/EC50^− ratio was at least 4. HBSS and HEPES were purchased from Gibco (Thermo Scientific); probenecid, BSA, and DMSO were purchased from Sigma-Aldrich.

[1] = Glutathione incubation assay; format: physicochemical; settings: 2 mM compound, 18 mM glutathione, MeCN/water, up to 48 h, LC/MS
Experimental: For the glutathione incubation assay, 20 mM stock solutions of compound 14b in MeCN (400 µL) and glutathione GSH in MeCN: Milli-Q H2O (10 mL, 1: 1, v/v) were prepared in separate scintillation vials. To prepare the incubation solution, 100 µL of 14b solution and 900 µL of GSH solution were taken in a clean HPLC vial. The final concentrations of 14b and GSH were 2 mM and 18 mM, respectively. In addition, a 2 mM reference solution of 14b was prepared by adding 100 µL of 14b stock solution to an HPLC vial containing 900 µL of MeCN: H2O (1:1), and an 18 mM reference solution of GSH was prepared by adding 900 µL of GSH stock solution to an HPLC vial containing 100 µL of MeCN.
Low-resolution mass spectra were obtained using an Agilent InfinityLab MSD single quadrupole mass spectrometer system (ESI). […] Chromatograms were detected using 254 and 280 nm wavelengths with 5 µL injections and data were processed using a general walkup method*.
*LC/MS Walkup Method: an Agilent InfinityLab MSD single quadrupole mass spectrometer equipped with an API-ES and an Agilent Infinity II 1260 HPLC equipped with an Agilent Infinity 1260 variable wavelength detector and a Phenomenex Synergi […] Hydro-RP 100A C18 30 × 2 mm column. […] MS Method: using atmospheric pressure ionization–electrospray, positive and negative ions were monitored in the range of 70–700 or 200–2000 (for compounds with a MW > 700).

Shift of the agonist activity of NPS (human NPSR-107I; 3 µM concentration, calcium mobilization assay): significant right shift
Kb (human NPSR-107I; Calcium Mobilization, CHO-Gα16-hNPSR-107I cells, shift of NPS EC50): 71.4 nM
Potency relative to SHA-68 (human NPSR-107I; in vitro antagonist potency): approximately sevenfold less potent
Compound: CC(C)CC1(c2ccccc2)OC(=O)C2=C1CN(C(=O)NCc1ccccc1)CC2 (single isomer, unassigned; (+)) [Compound 14b, (+) N-benzyl-3-(2-methylpropyl)-1-oxo-3-phenyl-1H,3H,4H,5H,6H,7H-furo[3,4-c]pyridine-5-carboxamide]
Glutathione adduct formation [1]: No glutathione adduct was identified; also recorded: stable
